Among the data in EP0091755A1, “Penicillin derivatives, a process for their preparation and compositions containing them” (BEECHAM GROUP PLC, priority 1982, dated 1983) are MIC values, retold here.

Assay type in all cases: cell-based
One assay relates to Staph. aureus Oxford. Nature of the assay: Antibacterial activity (MIC) against Staph. aureus Oxford. The following applies: Staphylococcus aureus.
The subject of another assay is Klebsiella aerogenes A. The assay is described as follows: Antibacterial activity (MIC) against Klebsiella aerogenes A.
A further assay has as its system P mirabilis C977. Nature of the assay: Antibacterial activity (MIC) against P mirabilis C977.
The subject of a further assay is Ps aeruginosa 10662. The assay is described as follows: Antibacterial activity (MIC) against Ps aeruginosa 10662.
The test system of a further assay is E Coli JT 425. Nature of the assay: Antibacterial activity (MIC) against E Coli JT 425.
The mark [1] stands for this setting: Staph Aureus Oxford, table, read-out: Antibacterial activities (MIC).
Where [2] appears, read: Klebsiella Aerogenes A, table, read-out: Antibacterial activities (MIC).
Setting [3] is: Proteus mirabilis, P. Mirabilis C977, table, read-out: Antibacterial activities (MIC).
[4] abbreviates: Pseudomonas aeruginosa, Ps. Aeruginosa 10662, table, read-out: Antibacterial activities (MIC).
[5] abbreviates: Escherichia coli, E. Coli JT 425, table, read-out: Antibacterial activities (MIC).
Setting [6] is: Staph. aureus Oxford, example, read-out: Antibacterial activity (MIC).
[7] abbreviates: Klebsiella aerogenes A, example, read-out: Antibacterial activity (MIC).
Setting [8] is: P mirabilis C977, example, read-out: Antibacterial activity (MIC).
Setting [9] is: Ps aeruginosa 10662, example, read-out: Antibacterial activity (MIC).

Structures are written as SMILES. Where two headings read alike, the source gives them in different places.

For the compound `CO[C@@]1(NC(=O)[C@@H](NC(=O)Nc2cnc(Nc3ccc(S(N)(=O)=O)cc3)nc2O)c2cccs2)C(=O)N2[C@@H](C(=O)O)C(C)(C)S[C@@H]21` [Example 5, Sodium 6,β-[L-2-[3-[2-(4 aminosulphonylphenylamino)-4-hydroxy-pyrimidin-5-yl]ureido]-2-thien-2-y-)acetamido]-6α methoxypenicillanate], the MIC came out at 25 µg/mL with Staph. aureus Oxford (setting [1]); 1 µg/mL with Klebsiella aerogenes A (setting [2]); 2.5 µg/mL with P mirabilis C977 (setting [3]); 50 µg/mL in the assay on Ps aeruginosa 10662 (setting [4]); 2.5 µg/mL with E Coli JT 425 (setting [5]).

For `CO[C@@]1(NC(=O)C(NC(=O)Nc2cnc(Nc3ccc(S(N)(=O)=O)cc3)nc2O)c2ccco2)C(=O)N2[C@@H](C(=O)O)C(C)(C)S[C@@H]21` (stereo partly drawn) [Example 6, Sodium 6,β-[D,L-2-[3-[2-(4-aminosulphonylphenylamino), -4-hydroxypyrimidin-5-yl]-ureido]-2-(furan-2-yl)acetamido]-6,a-methoxy penicillanate], the minimal inhibitory concentration (MIC) with Staph. aureus Oxford (setting [1]) worked out at 16 µg/mL; in the assay on Klebsiella aerogenes A (setting [2]) it was 0.12 µg/mL; with P mirabilis C977 (setting [3]) it was 2 µg/mL; in the assay on Ps aeruginosa 10662 (setting [4]), 32 µg/mL; in the assay on E Coli JT 425 (setting [5]), 8 µg/mL.

Regarding `CO[C@@]1(NC(=O)C(NC(=O)Nc2cnc(Nc3ccc(S(N)(=O)=O)cc3)nc2O)c2ccccc2F)C(=O)N2[C@@H](C(=O)O)C(C)(C)S[C@@H]21` (stereo partly drawn) [Example 7, Sodium 6,B-[D,L-2-[3-[2-(4-aminosulphonylphenylamino) -4-hydroxypyrimidin-5-yl]ureido]-2-(2-fluorophenyl)acetamido]-6,a-methoxypenicillanate], the MIC with Staph. aureus Oxford (setting [1]) is 16 µg/mL; in the assay on Klebsiella aerogenes A (setting [2]), 0.25 µg/mL; with P mirabilis C977 (setting [3]) it was 1 µg/mL; in the assay on Ps aeruginosa 10662 (setting [4]) it was 16 µg/mL; in the assay with E Coli JT 425 (setting [5]) it was 1 µg/mL.

For the compound `CO[C@@]1(NC(=O)C(NC(=O)Nc2cnc(Nc3ccc(S(N)(=O)=O)cc3)nc2O)c2ccc(OC(C)=O)c(OC(C)=O)c2)C(=O)N2[C@@H](C(=O)O)C(C)(C)S[C@@H]21` (stereo partly drawn) [Example 9, Sodium 6,B-[D,L-2-[3-[2-(4-aminosulphonylphenylamino)-4-hydroxypyrimidin-5-yl]ureido]-2-(3,4-diacetoxyphenyl)acetamido]-6,a-methoxypenicillanate], the MIC was < 128 µg/mL with Staph. aureus Oxford (setting [1]); < 0.06 µg/mL in the assay on Klebsiella aerogenes A (setting [2]); 2 µg/mL in the assay with P mirabilis C977 (setting [3]); 1 µg/mL in the assay with Ps aeruginosa 10662 (setting [4]); 1 µg/mL with E Coli JT 425 (setting [5]).

In the case of `CO[C@@]1(NC(=O)[C@H](NC(=O)Nc2cnc(Nc3ccc(S(N)(=O)=O)cc3)nc2O)c2cccs2)C(=O)N2[C@@H](C(=O)O)C(C)(C)S[C@@H]21` [Example 4, Sodium 6β-[D-2-[3-[2-(4-aminosulphonylphenylamino)-4-hydroxypyrimidin-5-yl]ureido]-2-(thien-2-yl)acetamido]-6,a-methoxypenicillanate.], the minimal inhibitory concentration (MIC) in the assay with Staph. aureus Oxford (setting [1]) was found to be 10 µg/mL; in the assay on Klebsiella aerogenes A (setting [2]), 0.2 µg/mL; with P mirabilis C977 (setting [3]), 1 µg/mL; with Ps aeruginosa 10662 (setting [4]) it was 10 µg/mL; in the assay with E Coli JT 425 (setting [5]), 1 µg/mL.

For `CO[C@@]1(NC(=O)[C@H](NC(=O)Nc2cnc(Nc3ccc(S(N)(=O)=O)cc3)nc2O)c2ccccc2)C(=O)N2[C@@H](C(=O)O)C(C)(C)S[C@@H]21` [Example 1, Sodium 6,β-(D-2-[3-[2-(4-aminosulphonylphenylamino)-4-hydroxypyrimidin-5-yl]ureido]-2-phenylacetamido] -6,a-methoxypenicillanate], the MIC in the assay with Staph. aureus Oxford (setting [6]) amounted to 10 µg/mL; with Klebsiella aerogenes A (setting [7]) it was 2.5 µg/mL; in the assay on P mirabilis C977 (setting [8]) it was 2.5 µg/mL; with Ps aeruginosa 10662 (setting [9]), 50 µg/mL.

For `CO[C@@]1(NC(=O)[C@H](NC(=O)Nc2cnc(Nc3ccc(S(N)(=O)=O)cc3)nc2O)c2ccc(O)cc2)C(=O)N2[C@@H](C(=O)O)C(C)(C)S[C@@H]21` [Example 3, Sodium 6,β-[D-2-[3-[2-(4-aminosulphonylphenylamino)-4-hydroxypyrimidin-5-yl]ureido]-2-(4-hydroxyphenyl)acetamido]-6,a-methoxypenicillanate], the MIC with Staph. aureus Oxford (setting [6]) amounted to 50 µg/mL; in the assay with Klebsiella aerogenes A (setting [7]) it was 0.2 µg/mL; in the assay with P mirabilis C977 (setting [8]) it was 1.25 µg/mL; with Ps aeruginosa 10662 (setting [9]), 25 µg/mL; with E Coli JT 425 (E Coli JT 425, example, read-out: Antibacterial activity (MIC)), 2.5 µg/mL.

For `CO[C@@]1(NC(=O)C(NC(=O)Nc2cnc(Nc3ccc(S(N)(=O)=O)cc3)nc2O)c2ccc(F)cc2)C(=O)N2[C@@H](C(=O)O)C(C)(C)S[C@@H]21` (stereo partly drawn) [Example 8, Sodium 6,B-[D,L-2-[3-[2-(4-aminosulphonylphenylamino)-4-hydroxy-pyrimidin-5-yl]ureido]-2-(4-fluorophenyl)-acetamido]-6,a-methoxypenicillanic.], the MIC with Staph. aureus Oxford (setting [1]) was determined as 64 µg/mL; with Klebsiella aerogenes A (setting [2]) it was 8 µg/mL; in the assay on P mirabilis C977 (setting [3]) it was 8 µg/mL; in the assay on Ps aeruginosa 10662 (setting [4]), 128 µg/mL; with E Coli JT 425 (setting [5]), 16 µg/mL.
